The source made the active and inactive calls.
How the values were obtained:
Type in all cases: functional
[1] = biological target: Ribosomal protein S6 kinase alpha-3 (Homo sapiens, UniProt P51812);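 note: measured within a kinome-wide profiling panel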
[2] = biological target: Tyrosine-protein kinase JAK2 (Homo sapiens, UniProt O60674);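 note: JAK2 tested as one member of a kinase panel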
[3] = biological target: 5'-AMP-activated protein kinase catalytic subunit alpha-1 (Homo sapiens, UniProt Q13131)
[4] = biological target: Death-associated protein kinase 3 (Homo sapiens, UniProt O43293);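 note: measured as one member of a kinome-wide profiling panel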
Death-associated protein kinase 3, sequence (O43293 whole entry): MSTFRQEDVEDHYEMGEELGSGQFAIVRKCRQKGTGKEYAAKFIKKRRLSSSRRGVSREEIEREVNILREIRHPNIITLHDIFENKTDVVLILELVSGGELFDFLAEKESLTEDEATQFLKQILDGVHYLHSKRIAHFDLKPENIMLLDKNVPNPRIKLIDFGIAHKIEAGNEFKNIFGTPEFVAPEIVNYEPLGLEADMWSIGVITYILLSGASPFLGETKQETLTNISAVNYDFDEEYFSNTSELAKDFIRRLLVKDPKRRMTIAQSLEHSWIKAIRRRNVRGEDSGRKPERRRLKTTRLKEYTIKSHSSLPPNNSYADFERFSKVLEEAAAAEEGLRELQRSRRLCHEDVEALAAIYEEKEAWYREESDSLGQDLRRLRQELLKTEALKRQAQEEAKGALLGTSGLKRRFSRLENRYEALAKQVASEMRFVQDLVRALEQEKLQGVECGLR

[5] = biological target: Mitogen-activated protein kinase 8 (Homo sapiens, UniProt P45983);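 note: value comes from one member of a kinome-wide kinase profiling panel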
Mitogen-activated protein kinase 8, sequence (P45983 whole entry): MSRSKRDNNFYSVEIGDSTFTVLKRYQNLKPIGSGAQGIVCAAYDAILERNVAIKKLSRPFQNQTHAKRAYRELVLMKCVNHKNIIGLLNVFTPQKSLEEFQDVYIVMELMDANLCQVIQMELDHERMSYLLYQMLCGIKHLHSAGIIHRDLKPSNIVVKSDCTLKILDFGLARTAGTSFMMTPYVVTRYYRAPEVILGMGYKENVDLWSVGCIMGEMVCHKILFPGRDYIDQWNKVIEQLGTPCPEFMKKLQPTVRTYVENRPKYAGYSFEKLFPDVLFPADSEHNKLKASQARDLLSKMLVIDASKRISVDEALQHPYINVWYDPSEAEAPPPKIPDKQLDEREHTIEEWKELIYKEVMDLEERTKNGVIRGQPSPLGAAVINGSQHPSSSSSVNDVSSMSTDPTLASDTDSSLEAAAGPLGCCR

[6] = biological target: Serine/threonine-protein kinase pim-1 (Homo sapiens, UniProt P11309)
[7] = biological target: Aurora kinase A (Homo sapiens, UniProt O14965);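 note: value from the Navigating the Kinome kinase panel profiling, panel entry STK6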
[8] = biological target: Mast/stem cell growth factor receptor Kit (Homo sapiens, UniProt P10721);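 note: KIT entry within a kinase panel assay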
[9] = biological target: Serine/threonine-protein kinase PAK 4 (Homo sapiens, UniProt O96013);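 note: value obtained within a kinome profiling panel in which PAK4 was one of the panel members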
[10] = biological target: Fibroblast growth factor receptor 1 (Homo sapiens, UniProt P11362)
[11] = biological target: Tyrosine-protein kinase JAK3 (Homo sapiens, UniProt P52333)
Tyrosine-protein kinase JAK3, sequence (P52333 whole entry): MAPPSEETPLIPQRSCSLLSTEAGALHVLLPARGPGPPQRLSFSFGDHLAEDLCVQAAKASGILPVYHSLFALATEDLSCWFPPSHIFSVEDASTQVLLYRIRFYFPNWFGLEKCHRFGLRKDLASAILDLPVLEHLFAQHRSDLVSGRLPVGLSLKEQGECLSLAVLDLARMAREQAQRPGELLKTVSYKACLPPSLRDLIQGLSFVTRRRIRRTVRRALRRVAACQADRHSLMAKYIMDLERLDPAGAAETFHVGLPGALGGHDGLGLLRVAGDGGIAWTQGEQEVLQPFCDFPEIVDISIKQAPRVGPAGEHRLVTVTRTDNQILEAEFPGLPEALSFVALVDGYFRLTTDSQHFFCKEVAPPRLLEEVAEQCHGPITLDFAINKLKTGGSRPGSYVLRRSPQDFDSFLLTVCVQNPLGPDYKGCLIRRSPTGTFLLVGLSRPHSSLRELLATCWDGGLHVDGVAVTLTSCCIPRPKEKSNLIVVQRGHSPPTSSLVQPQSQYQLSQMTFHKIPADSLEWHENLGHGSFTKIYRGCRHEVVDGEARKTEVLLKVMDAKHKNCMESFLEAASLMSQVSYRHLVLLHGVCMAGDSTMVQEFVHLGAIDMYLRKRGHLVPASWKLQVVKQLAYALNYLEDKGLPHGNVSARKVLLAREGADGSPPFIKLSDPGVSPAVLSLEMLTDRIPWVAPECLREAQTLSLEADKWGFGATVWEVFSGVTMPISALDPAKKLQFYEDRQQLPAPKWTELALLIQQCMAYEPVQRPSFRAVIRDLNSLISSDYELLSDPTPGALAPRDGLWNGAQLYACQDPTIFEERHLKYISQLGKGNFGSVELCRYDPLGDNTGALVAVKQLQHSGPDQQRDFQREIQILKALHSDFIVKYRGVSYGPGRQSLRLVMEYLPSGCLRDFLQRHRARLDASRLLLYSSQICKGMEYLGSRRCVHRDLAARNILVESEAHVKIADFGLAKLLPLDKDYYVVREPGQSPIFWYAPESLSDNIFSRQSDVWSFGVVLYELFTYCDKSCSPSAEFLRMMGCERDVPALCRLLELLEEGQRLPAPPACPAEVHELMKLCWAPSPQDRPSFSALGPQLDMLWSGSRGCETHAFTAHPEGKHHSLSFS

[12] = biological target: Mitogen-activated protein kinase 9 (Homo sapiens, UniProt P45984);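 note: value from a kinome panel profiling assay, MAPK9 panel entry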
[13] = biological target: High affinity nerve growth factor receptor (Homo sapiens, UniProt P04629);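 note: NTRK1 tested as one member of a kinome-wide profiling panel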
[14] = biological target: Glycogen synthase kinase-3 alpha (Homo sapiens, UniProt P49840);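 note: GSK3A result taken from a broad kinome-wide kinase panel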
[15] = biological target: T1, Receptor-type tyrosine-protein kinase FLT3 (Homo sapiens, UniProt P36888);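 note: FLT3 was tested as one member of a kinome-wide kinase panel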
T1 sequence (P36888 whole entry): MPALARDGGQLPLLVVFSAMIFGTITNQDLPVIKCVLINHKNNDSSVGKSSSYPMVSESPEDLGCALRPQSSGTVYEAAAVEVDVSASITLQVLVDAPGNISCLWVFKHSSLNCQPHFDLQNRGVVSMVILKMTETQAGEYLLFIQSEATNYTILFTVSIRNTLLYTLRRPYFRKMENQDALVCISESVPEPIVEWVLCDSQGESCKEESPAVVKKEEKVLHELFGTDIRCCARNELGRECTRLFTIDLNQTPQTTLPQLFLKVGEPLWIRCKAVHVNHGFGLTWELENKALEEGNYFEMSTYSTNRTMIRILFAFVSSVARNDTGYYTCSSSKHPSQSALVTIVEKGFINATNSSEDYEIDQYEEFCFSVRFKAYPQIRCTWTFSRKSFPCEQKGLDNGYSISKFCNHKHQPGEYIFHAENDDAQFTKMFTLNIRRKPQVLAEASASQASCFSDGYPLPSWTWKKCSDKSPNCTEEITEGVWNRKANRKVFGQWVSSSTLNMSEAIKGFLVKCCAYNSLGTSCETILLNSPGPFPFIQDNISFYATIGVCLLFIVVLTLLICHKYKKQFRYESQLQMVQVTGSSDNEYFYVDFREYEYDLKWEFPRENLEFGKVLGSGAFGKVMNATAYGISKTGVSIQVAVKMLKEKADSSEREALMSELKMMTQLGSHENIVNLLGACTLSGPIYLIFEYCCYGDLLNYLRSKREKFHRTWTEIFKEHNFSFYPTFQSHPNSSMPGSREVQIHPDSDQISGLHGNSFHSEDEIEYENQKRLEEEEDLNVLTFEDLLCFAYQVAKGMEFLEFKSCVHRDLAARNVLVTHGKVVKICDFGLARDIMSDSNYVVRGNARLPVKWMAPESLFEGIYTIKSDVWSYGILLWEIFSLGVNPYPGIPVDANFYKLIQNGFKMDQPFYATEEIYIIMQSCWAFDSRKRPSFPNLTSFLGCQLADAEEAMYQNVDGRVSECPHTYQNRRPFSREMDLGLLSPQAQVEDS

[16] = biological target: Tyrosine-protein kinase ABL1 (Homo sapiens, UniProt P00519)
[17] = biological target: Vascular endothelial growth factor receptor 2 (Homo sapiens, UniProt P35968)
[18] = biological target: Insulin-like growth factor 1 receptor (Homo sapiens, UniProt P08069); experiment: Navigating the Kinome. Panel member name: IGF1R
[19] = biological target: Aurora kinase B (Homo sapiens, UniProt Q96GD4)
Aurora kinase B, sequence (Q96GD4 whole entry): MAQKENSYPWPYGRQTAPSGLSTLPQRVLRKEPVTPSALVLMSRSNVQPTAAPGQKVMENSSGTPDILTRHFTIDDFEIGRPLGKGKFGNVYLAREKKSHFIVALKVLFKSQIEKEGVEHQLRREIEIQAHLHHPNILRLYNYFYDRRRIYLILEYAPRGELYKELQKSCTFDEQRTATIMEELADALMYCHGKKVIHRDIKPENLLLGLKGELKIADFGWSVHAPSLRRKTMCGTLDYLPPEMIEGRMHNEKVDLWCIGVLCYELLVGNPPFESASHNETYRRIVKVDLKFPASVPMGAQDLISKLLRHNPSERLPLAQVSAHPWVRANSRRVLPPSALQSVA

[20] = biological target: Rho-associated protein kinase 1 (Homo sapiens, UniProt Q13464);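 note: measured within a broad kinome-wide panel profiling many kinases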
[21] = biological target: Tyrosine-protein kinase Fyn (Homo sapiens, UniProt P06241)
[22] = biological target: Vascular endothelial growth factor receptor 1 (Homo sapiens, UniProt P17948);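 note: measured within a kinome-wide profiling panel, FLT1 as the panel member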
[23] = biological target: Serine/threonine-protein kinase PLK1 (Homo sapiens, UniProt P53350);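 note: PLK1 measured as one member of a kinome-wide profiling panel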
[24] = biological target: Glycogen synthase kinase-3 beta (Homo sapiens, UniProt P49841);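 note: value comes from a broad kinome profiling panel, with GSK3B as the panel member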
Glycogen synthase kinase-3 beta, sequence (P49841 whole entry): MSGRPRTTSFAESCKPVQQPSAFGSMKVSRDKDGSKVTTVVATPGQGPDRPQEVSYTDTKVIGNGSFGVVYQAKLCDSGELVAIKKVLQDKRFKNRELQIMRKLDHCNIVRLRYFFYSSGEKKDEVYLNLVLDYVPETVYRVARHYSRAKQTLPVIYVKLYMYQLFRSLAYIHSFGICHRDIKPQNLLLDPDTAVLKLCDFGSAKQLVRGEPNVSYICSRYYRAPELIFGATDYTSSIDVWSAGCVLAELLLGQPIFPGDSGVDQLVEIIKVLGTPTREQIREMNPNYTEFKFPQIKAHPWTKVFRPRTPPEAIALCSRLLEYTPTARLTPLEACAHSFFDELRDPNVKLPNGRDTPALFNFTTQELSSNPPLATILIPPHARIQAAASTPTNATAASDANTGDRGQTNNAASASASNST

[25] = biological target: BDNF/NT-3 growth factors receptor (Homo sapiens, UniProt Q16620);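 note: NTRK2 measured as one member of a broad kinome-wide kinase profiling panel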
[26] = biological target: cAMP-dependent protein kinase catalytic subunit alpha (Homo sapiens, UniProt P17612)
[27] = biological target: Macrophage colony-stimulating factor 1 receptor (Homo sapiens, UniProt P07333);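 note: value comes from the Navigating the Kinome screening panel, CSF1R member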
Macrophage colony-stimulating factor 1 receptor, sequence (P07333 whole entry): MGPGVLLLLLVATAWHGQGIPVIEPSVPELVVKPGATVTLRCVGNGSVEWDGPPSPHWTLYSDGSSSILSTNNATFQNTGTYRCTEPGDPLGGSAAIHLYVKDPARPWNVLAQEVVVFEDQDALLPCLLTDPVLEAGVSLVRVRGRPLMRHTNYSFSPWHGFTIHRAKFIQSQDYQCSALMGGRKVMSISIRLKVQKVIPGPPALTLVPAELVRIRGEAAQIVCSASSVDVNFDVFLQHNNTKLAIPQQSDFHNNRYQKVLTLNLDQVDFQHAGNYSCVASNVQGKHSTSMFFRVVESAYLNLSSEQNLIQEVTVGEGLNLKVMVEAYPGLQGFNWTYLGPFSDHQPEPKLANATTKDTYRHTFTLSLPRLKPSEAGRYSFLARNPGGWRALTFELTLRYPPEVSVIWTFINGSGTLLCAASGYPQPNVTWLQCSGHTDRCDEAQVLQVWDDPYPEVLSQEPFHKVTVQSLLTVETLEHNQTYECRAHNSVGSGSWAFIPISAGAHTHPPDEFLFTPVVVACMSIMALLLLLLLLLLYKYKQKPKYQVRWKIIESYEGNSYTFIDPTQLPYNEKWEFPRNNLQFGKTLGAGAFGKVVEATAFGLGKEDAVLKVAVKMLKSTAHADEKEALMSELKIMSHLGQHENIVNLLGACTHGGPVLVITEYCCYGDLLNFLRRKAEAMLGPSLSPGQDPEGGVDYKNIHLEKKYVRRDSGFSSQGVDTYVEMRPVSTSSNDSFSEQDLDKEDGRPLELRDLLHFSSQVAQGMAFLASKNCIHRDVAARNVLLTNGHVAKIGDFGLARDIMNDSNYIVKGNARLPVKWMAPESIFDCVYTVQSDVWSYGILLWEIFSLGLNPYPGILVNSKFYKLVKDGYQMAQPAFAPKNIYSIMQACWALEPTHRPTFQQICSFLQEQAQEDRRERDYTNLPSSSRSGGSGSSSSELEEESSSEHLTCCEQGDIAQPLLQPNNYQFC

[28] = biological target: Dual specificity tyrosine-phosphorylation-regulated kinase 1A (Homo sapiens, UniProt Q13627);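 note: measured against DYRK1A as one member of a broad kinome profiling panel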
[29] = biological target: Serine/threonine-protein kinase 3 (Homo sapiens, UniProt Q13188);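 note: measured as one member of a kinome-wide kinase panel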
[30] = biological target: Calcium/calmodulin-dependent protein kinase type II subunit delta (Homo sapiens, UniProt Q13557)
[31] = biological target: cAMP-dependent protein kinase catalytic subunit PRKX (Homo sapiens, UniProt P51817)
[32] = biological target: Focal adhesion kinase 1 (Homo sapiens, UniProt Q05397);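 note: measured as one member of a kinome panel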
[33] = biological target: Maternal embryonic leucine zipper kinase (Homo sapiens, UniProt Q14680)

Tyrosine-protein kinase JAK2, sequence (O60674 whole entry): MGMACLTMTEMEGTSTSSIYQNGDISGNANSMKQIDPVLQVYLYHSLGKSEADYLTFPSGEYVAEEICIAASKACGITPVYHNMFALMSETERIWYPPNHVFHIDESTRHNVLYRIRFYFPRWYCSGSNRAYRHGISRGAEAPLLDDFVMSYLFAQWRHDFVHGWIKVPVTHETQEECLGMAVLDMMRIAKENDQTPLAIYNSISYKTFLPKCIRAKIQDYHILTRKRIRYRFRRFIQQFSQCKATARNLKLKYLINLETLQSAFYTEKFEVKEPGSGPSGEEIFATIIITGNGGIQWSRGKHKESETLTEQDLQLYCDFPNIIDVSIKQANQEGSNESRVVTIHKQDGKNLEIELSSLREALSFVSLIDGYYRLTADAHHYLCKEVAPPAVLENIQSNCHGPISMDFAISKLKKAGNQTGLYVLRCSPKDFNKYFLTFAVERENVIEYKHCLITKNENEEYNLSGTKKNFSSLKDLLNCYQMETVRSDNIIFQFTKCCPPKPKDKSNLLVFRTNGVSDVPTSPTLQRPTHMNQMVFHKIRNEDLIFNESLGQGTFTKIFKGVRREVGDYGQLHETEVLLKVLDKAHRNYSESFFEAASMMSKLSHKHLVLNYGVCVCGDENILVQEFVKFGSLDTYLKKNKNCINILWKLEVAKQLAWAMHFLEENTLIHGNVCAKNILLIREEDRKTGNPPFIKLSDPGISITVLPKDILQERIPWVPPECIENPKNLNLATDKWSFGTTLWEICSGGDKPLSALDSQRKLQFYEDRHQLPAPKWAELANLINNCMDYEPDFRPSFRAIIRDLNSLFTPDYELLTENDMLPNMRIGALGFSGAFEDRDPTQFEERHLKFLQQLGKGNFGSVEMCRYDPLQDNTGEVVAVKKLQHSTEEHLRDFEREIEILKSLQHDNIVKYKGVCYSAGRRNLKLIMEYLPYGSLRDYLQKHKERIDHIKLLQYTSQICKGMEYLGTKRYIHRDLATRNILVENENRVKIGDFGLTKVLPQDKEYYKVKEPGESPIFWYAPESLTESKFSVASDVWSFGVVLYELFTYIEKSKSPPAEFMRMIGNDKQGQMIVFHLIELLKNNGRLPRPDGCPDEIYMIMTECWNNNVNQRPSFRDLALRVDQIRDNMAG

Compound | Ki [1] | Ki [2] | Ki [3] | Ki [4] | Ki [5] | Ki [6] | Ki [7] | Ki [8] | Ki [9] | Ki [10] | Ki [11] | Ki [12] | Ki [13] | Ki [14] | Ki [15] | Ki [16] | Ki [17] | Ki [18] | Ki [19] | Ki [20] | also measured
NC(COc1cncc(-c2cc3ccncc3s2)c1)Cc1c[nH]c2ccccc12 (stereo unspecified) | 0.0251 µM (active) | 1 µM (active) | 0.316 µM (active) | 0.0631 µM (active) | 2.51 µM (active) | 0.0794 µM (active) | > 6.31 µM (inactive) | 0.631 µM (active) | 5.01 µM (active) | 2.51 µM (active) | > 1.58 µM (inactive) | > 3.98 µM (inactive) | > 2.51 µM (inactive) | 0.0251 µM (active) | 0.251 µM (active) | > 0.631 µM (inactive) | 0.794 µM (active) | > 1 µM (inactive) | 0.794 µM (active) | 0.02 µM (active) | Ki [21]: > 0.794 µM (inactive); Ki [22]: 0.316 µM (active); Ki [23]: > 7.94 µM (inactive); Ki [24]: 0.0126 µM (active); Ki [25]: > 5.01 µM (inactive); Ki [26]: 0.01 µM (active); Ki [27]: > 2.51 µM (inactive); Ki [28]: 0.00398 µM (active); Ki [29]: 0.794 µM (active)
CN(C)C1CCC(Nc2nc(Cl)cc(-c3c[nH]c4ncccc34)n2)CC1 (stereo unspecified) | 0.0631 µM (active) | 1.26 µM (active) | 0.0794 µM (active) | 0.0631 µM (active) | 1 µM (active) | 0.251 µM (active) | > 1.58 µM (inactive) | > 3.98 µM (inactive) | 0.0501 µM (active) | > 3.98 µM (inactive) | 1.58 µM (active) | > 3.98 µM (inactive) | > 3.16 µM (inactive) | 0.794 µM (active) | 1.58 µM (active) | > 3.98 µM (inactive) | 1.26 µM (active) | > 2.51 µM (inactive) | 0.794 µM (active) | 0.00126 µM (active) | Ki [30]: 1.26 µM (active); Ki [31]: 0.0251 µM (active); Ki [32]: > 6.31 µM (inactive); Ki [33]: 0.00316 µM (active); Ki [21]: > 6.31 µM (inactive); Ki [22]: > 3.98 µM (inactive); Ki [24]: 1.58 µM (active); Ki [25]: 1.58 µM (active); Ki [26]: 0.0251 µM (active); Ki [27]: 0.501 µM (active); Ki [28]: 0.0398 µM (active); Ki [29]: 0.0794 µM (active)

From ChEMBL document CHEMBL1201862, “PubChem BioAssay data set” (2004)
